# Results published in patent US9370506B2, “Modulators of aldehyde dehydrogenase and methods of use thereof” (The Board of Trustees of the Leland Stanford Junior …, priority 2008, dated 2016).
# Experiments:
# [1] = target: T1, ALDH3 (Homo sapiens, UniProt P30838); experiment: ALDH3 enzymatic activity, spectrophotometric NAD+ to NADH assay; assay type: biochemical; details: acetaldehyde as substrate; FIG. 15
# T1 construct: made in house; host or cells: BL21 E. coli
# T1 sequence (P30838 1-453): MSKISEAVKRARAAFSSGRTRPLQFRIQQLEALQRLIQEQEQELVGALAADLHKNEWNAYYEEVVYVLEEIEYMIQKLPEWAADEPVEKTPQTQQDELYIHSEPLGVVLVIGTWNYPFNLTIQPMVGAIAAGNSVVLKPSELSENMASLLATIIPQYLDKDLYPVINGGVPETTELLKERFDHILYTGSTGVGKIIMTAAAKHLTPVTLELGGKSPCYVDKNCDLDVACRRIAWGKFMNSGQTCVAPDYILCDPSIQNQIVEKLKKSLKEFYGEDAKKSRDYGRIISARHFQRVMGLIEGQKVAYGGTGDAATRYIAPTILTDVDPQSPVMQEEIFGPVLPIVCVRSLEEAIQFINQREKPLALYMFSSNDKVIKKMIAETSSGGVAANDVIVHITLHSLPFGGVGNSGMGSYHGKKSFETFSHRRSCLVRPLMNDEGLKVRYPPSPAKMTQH
# Method: (§1) Reagents for plant-derived compounds safrole, isosafrole, piperine, sesamin, capsaicin were purchased from Sigma-Aldrich Chemicals and dihydromethysticin was purchased from AvaChem. Scientific. Piperine related compounds, Alda-101 to Alda-112, were synthesized by standard organic chemistry. All testing compounds were dissolved in dimethyl-sulfoxide (DMSO) to obtain a stock solution of 20 mM. Different recombinant ALDH isozymes with a His-epitope tag at the N-terminus were constructed, cloned and expressed in BL21 E. coli host cells according published methods (Chen et al., 2008 Science 321:1493). The bacteria were subjected to 0.5 mM IPTG induction for protein expression at 30° C. Purification of the recombinant proteins by affinity nickel columns were carried out using a standard protocol according to manufacturer's instructions (Novagen, Wis., USA).
# (§2) ALDH enzymatic activity was determined spectrophotometrically using purified recombinant protein (15 ug) in the reductive reaction of NAD^+ to NADH at λ340 nm (Rex et al., 1985, Alcohol Clin Exp Res 9: 147). All the assays in the presence of absence of a testing compound were carried out at 25° C. in […] pyrophosphate buffer, pH=9.5, 2.4 mM NAD+ and 10 mM acetaldehyde or phenylacetaldehyde as a substrate.
# [2] = target: T2, ALDH2 isozyme (Homo sapiens, UniProt P05091); experiment: ALDH2 enzymatic activity, spectrophotometric NAD+ to NADH assay; assay type: biochemical; details: 40 uM
# T2 construct: made in house; host or cells: BL21 E. coli
# T2 sequence (P05091 18-517): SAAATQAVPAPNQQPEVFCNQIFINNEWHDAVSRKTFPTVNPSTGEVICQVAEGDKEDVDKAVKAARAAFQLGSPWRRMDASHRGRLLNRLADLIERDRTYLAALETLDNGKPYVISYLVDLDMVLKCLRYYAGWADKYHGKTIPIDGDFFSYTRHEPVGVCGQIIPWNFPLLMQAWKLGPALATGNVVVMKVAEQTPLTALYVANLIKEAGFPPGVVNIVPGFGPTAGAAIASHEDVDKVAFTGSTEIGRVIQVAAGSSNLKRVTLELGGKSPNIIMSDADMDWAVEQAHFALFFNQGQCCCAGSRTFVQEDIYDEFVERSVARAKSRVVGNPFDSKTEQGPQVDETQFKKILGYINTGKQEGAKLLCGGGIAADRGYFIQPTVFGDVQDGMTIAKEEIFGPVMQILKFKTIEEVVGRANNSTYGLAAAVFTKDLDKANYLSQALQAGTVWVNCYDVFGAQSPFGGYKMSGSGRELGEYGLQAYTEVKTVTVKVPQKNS
# Method: as §1, §2
# [3] = system: C57Bl/6J mice; experiment: Radiation dermatitis model, gamma irradiation of skin; assay type: in vivo
# Text: Radiation dermatitis is a painful side effect experienced by human patients undergoing radiotherapy for solid tumors. Radiation dermatitis is believed to be due to acute oxidative injury to the skin, which leads to lipid peroxidation and the accumulation of reactive aldehydes, such as 4-hydrorxynonenal. In this example, Alda-1 is shown to reduce radiation dermatitis by maintaining ALDH activity during exposure to radiation. C57Bl/6J mice were exposed to 6Gy gamma irradiation per day (applied directly to the shaved back area over a period of 5 minutes) in the absence or presence of 200 μl of 3 mM Alda-1 (in 95% ethanol) or […] alone (vehicle control). Alda-1 or ethanol alone was applied topically 5 minutes before and 5 minutes after each radiation treatment for a total of 10 sessions (60 Gy total, 6 Gy/day with a two-day break after 5 sessions). Mice were euthanized and exposed skin was dissected, and either homogenized in Lysis Buffer (for ALDH2 activity assay, FIG. 18) or fixed in 4%-paraformaldehyde (for histological analysis, FIG. 19).
# [4] = system: SCC VII murine squamous cell carcinoma cells; experiment: Tumor radiation therapy model; assay type: in vivo, mice; details: topical 200 μl of 3 mM, FIG. 21
# Method: In order to determine the impact of Alda-1 on the effectiveness of radiation therapy, C57Bl/6J mice were inoculated subcutaneously with SCC VII murine squamous cell carcinoma cells (5×10^5) and exposed to radiation therapy (250cGy/day) in the absence or presence of Alda-1 (200 μl of 3 mM Alda-1 in 95% ethanol) or ethanol (200 μl of 95% ethanol) applied 5 min before and 5 min after radiation. Tumor volume was measured daily until the tumor reached four times its starting size at treatment onset (Ning et al., 2008, Mol Cancer Therapy 7:1569-78).
smiles,measurement,setting,value
"O=C(NCc1ccc2c(c1)OCO2)c1c(Cl)cccc1Cl [Alda-1, N-(1,3-benzodioxol-5-ylmethyl)-2,6-dichlorobenzamide]",effect on enzymatic activity of ALDH3 isozyme,[1],does not have any effect
same,effect of co-incubation on safrole inhibition of ALDH2,"[2]; safrole 500 uM & 1000 uM, FIG. 17",prevented and reversed
same,"effect of co-incubation on safrole inhibition of ALDH2, 15-minute kinetic measurements","[2]; safrole 1000 uM, FIG. 18",prevented and reversed
same,ALDH activity in irradiated skin,"[3]; topical 3 mM in 95% ethanol, 6Gy gamma irradiation, FIG. 19",significantly attenuated the inhibition of ALDH
same,Epidermal thickening after radiation,"[3]; topical 3 mM, 5 days exposure to 6Gy irradiation, vs vehicle control, FIG. 20",significantly reduced
same,sensitivity of the tumor to radiation treatment (tumor growth),"[4]; 250cGy/day, vs ethanol vehicle control",increased significantly the sensitivity of the tumor to radiation treatment
same,tumor growth in non-irradiated mice,"[4]; no radiation, vs ethanol treated mice",no effect on tumor growth
